Measured values published in paper PMC10196870, “Structural insights into the substrate recognition of serine palmitoyltransferase from Sphingobacterium multivorum” (The Journal of Biological Chemistry, 2023).
“Also recorded” adds a separate entry of the source. Marks after values point to notes of the source that are not given here.

Tests used:
[1] = biological target: T1, Sphingobacterium multivorum SPT (Sphingobacterium multivorum, UniProt A7BFV6); experiment: TLC analysis of LCB formation from amino acids by SPT (ninhydrin); format: biochemical; settings: 200 mM amino acid, 1 mM PalCoA, 100 μM SPT, pH 7.5, 60 min, 37 °C
T1 construct: harboring the plasmid that express the full length of S. multivorum SPT; made in house; host or cells: Escherichia coli BL21 (DE3) pLysS
T1 sequence (A7BFV6 whole entry): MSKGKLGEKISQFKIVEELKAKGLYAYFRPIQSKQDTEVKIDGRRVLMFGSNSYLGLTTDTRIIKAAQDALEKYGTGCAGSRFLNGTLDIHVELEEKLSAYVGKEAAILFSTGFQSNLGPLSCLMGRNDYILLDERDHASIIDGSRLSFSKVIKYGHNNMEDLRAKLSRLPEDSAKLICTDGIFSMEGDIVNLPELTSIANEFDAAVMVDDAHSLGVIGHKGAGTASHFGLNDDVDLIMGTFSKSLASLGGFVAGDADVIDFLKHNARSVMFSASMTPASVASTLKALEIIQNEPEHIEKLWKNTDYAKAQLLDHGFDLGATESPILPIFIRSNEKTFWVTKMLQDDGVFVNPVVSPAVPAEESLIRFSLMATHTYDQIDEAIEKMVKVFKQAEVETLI
Excerpt: Reaction products were extracted with solvents and separated by TLC. […] Each LCB product was quantified by the fluorescence intensity based on the standard curve obtained by using the corresponding authentic compound.

[2] = biological target: T1, Sphingobacterium multivorum SPT; experiment: Steady-state kinetic analysis of SPT (LCB production from amino acid and PalCoA, quantified by TLC fluorescence); format: biochemical; settings: 1 mM PalCoA; for Kmapp / kcatapp: mean ± SD
Method: The assay was performed as follows; 200 mM of amino acid (glycine, L-Ala, L-Ser, L-Hse, or L-Thr) was incubated with 1 mM PalCoA and 100 μM SPT in 100 μl of 100 mM potassium phosphate, pH 7.5, for 60 min at 37 °C. The reactions were terminated by addition of the equal volume of 2 N ammonia. Lipids were extracted by successive addition and mixing of 750 μl of chloroform/methanol (1:2, v/v), 250 μl of chloroform, and 250 μl of 1% KCl. Phases were separated by centrifugation, and the organic phase was recovered. The aqueous phase was reextracted with 200 μl of chloroform, and, after centrifugation, the organic phase was combined with the organic phase from the first extraction. The organic phase was washed with water/chloroform/methanol (47:48:3, v/v), dried, and suspended in chloroform/methanol (2:1, v/v). The extracted lipids were resolved by normal-phase TLC on Silica Gel 60 high-performance TLC plates (Merck) with chloroform/methanol/2 N ammonia (40:10:1, v/v) or chloroform/methanol/triethanol amine (95:5:10, v/v) and visualized by spraying with ninhydrin reagent followed by gentle heating. For the quantitative analysis, the UV-fluorescence intensities of the reaction products on TLC plates were visualized by a Fusion chemiluminescence imaging system using a UV-light box and analyzed by a FUSION Capt software (VILBER; https://www.garvan.org.au/research/capabilities/molecular-genetics/ documents/fusion_manual_2016.pdf).
Steady-state kinetic parameters were determined by varying the concentrations of the amino acid substrate in the presence of 1 mM PalCoA in 100 μl of 100 mM potassium phosphate, pH 7.5, at 37 °C. The concentration of SPT and the incubation time were 1 μM and 10 min for L-Ser; 5 μM and 10 min for L-Hse; 20 μM and 30 min for L-Ala; and 100 μM and 120 min for Gly. The reaction termination, lipid extraction, TLC analysis, and quantification of the reaction products on TLC plates were described above. The apparent velocities (min^–1) versus amino acid concentrations (mM) plots were fitted to the Michaelis–Menten equation, v = Vmax[S]/(Km+[S]), by nonlinear regression using the Igor Pro 6.37 (https://www.wavemetrics.com/forum/news-and-announcements/igor-pro-637-released). software (Wave Matrix Inc.) to determine the apparent kinetic parameters, kcatapp and Kmapp , of SPT for each amino acid substrate.
The reactions were carried out in the presence of 1 mM PalCoA as described in Experimental procedures. Apparent rate constants, obtained by dividing the rate of the LCB production by the concentration of the enzyme, were plotted against concentrations of amino acid substrate, L-Ser (A), L-Hse (B), L-Ala (C), or glycine (D). The plots were fitted to the equation of the Michaelis–Menten mechanism, v = Vmax[S]/(Km+[S]), by nonlinear regression using the software Igor Pro (ver 6.37, WaveMetrics, Lake Oswego, OR), and the Kmappand kcatapp of SPT for each amino acid substrate were calculated. Solid line represents a theoretical curve based on the above equation. Each data point is a mean with the error bar showing standard deviation from at least three independent experiments.

[3] = biological target: T1, Sphingobacterium multivorum SPT; experiment: Spectroscopic titration of SPT with amino acids (dissociation constants, external aldimine formation); format: binding; settings: 10 μM SPT, pH 7.5, 25 °C
Method: Next, binding of the amino acids to the S. multivorum SPT was examined by spectroscopic titration.
Figure 3 Spectroscopic analysis of the reaction of the Sphingobacterium multivorum SPT with L-Ala or L-Thr.A, the UV/vis absorption spectra of SPT (10 μM) in the presence of 800 mM L-Ala were measured at time intervals of 10 min for 500 min. Each line numbered 1 to 12 corresponds to the spectrum at 0, 10, 20, 30, 40, 50, 60, 80, 90, 110, 150, and 500 min, respectively, after SPT was mixed with L-Ala. […] B, spectroscopic titration of SPT with L-Ala. Absorbance at 420 nm in the presence of 0, 50, 100, 200, 400, and 600 mM L-Ala at 0 min was measured, and apparent molar absorptivities at 420 nm were plotted against L-Ala concentrations. […] C, absorption spectra of SPT (10 μM) in the presence of 0, 1.3, 3.7, 7.4, 12.2, 18.1, 24.9, 32.7, 41.3, and 51.6 mM L-Thr (lines 1–10, respectively). […] SPT, serine palmitoyltransferase.
The titration assay was carried out by using 10 μM SPT in 100 mM potassium phosphate and 0.1 mM EDTA, pH 7.5, at 25 °C. The changes of the 422 nm absorption intensities of SPT upon addition of amino acids were plotted against the final concentrations of the amino acids, and the Kd values were calculated by fitting to a hyperbolic saturation curve using Igor Pro 6.37. software. UV/vis spectra of SPT were recorded with a Hitachi U-3310 spectrophotometer.

[4] = biological target: T1, Sphingobacterium multivorum SPT; experiment: UV/vis time course of conversion of PLP and L-Ala to PMP and pyruvate by SPT (abortive transamination); format: biochemical
Method: Next, binding of the amino acids to the S. multivorum SPT was examined by spectroscopic titration. […] Therefore, the absorption at 420 nm just after SPT was mixed with L-Ala was measured and plotted against concentrations of L-Ala (Fig. 3B), and the Kd value for L-Ala was estimated as 65 ± 10 mM (Table 1). For the other amino acids, only spectral changes corresponding to the external aldimine formation between PLP and the amino acids were observed, and side reactions such as PMP formation were not detected.
Figure 3 Spectroscopic analysis of the reaction of the Sphingobacterium multivorum SPT with L-Ala or L-Thr.A, the UV/vis absorption spectra of SPT (10 μM) in the presence of 800 mM L-Ala were measured at time intervals of 10 min for 500 min. Each line numbered 1 to 12 corresponds to the spectrum at 0, 10, 20, 30, 40, 50, 60, 80, 90, 110, 150, and 500 min, respectively, after SPT was mixed with L-Ala. […] The lines represent theoretical fits to a single-exponential equation ( y=A×e^−k⋅t ), where k is 0.029 ± 0.00024 min^–1. B, spectroscopic titration of SPT with L-Ala. Absorbance at 420 nm in the presence of 0, 50, 100, 200, 400, and 600 mM L-Ala at 0 min was measured, and apparent molar absorptivities at 420 nm were plotted against L-Ala concentrations. […]

[5] = 100 mM potassium phosphate, 0.1 mM EDTA, absorption at 422 nm, mean ± SD
[6] = 100 mM potassium phosphate pH 7.5, 37 °C
[7] = reaction mixture supplemented with 0.1 mM PLP, pH 7.5, 37 °C

Row | Structure (SMILES) | LCB formation (reaction product on TLC) [1] | Kmapp, fold larger than that for L-Ser [2] [fold] | Kd [3, 5] [mM] | Kmapp [2, 6] [mM] | kcatapp [2, 6] [min^–1] | kcatapp/Kmapp (apparent catalytic efficiency) ([2]; pH 7.5, 37 °C) [min^–1 mM^–1] | kcatapp, fold smaller than that for L-Ser [2] | Kmapp [2, 7] | kcatapp [2, 7] | Kd ([3]; absorption intensity at 424 nm immediately after SPT was mixed with L-Ala (text: 420 nm)) [mM] | half-life τ1/2 of conversion of PLP and L-Ala to PMP and pyruvate ([4]; SPT (10 μM) incubated with 800 mM L-Ala) [min] | rate constant k of single-exponential change in absorption at 420 nm and 328 nm ([4]; SPT (10 μM), 800 mM L-Ala) [min^–1]
1 | C[C@@H](O)[C@H](N)C(=O)O [L-Thr, L-threonine] | not detected; also recorded: nonproductive ligand | 23 | 8.2 ± 1 | – | – | – | – | – | – | – | – | –
2 | N[C@@H](CO)C(=O)O [L-Ser, L-serine] | – | – | 0.45 ± 0.05 | 3.6 ± 0.87 | 13 ± 1.0 | 3.6 | – | – | – | – | – | –
3 | NCC(=O)O [Gly, glycine] | converted to corresponding LCBs | 21 | 71 ± 5.5 | 77 ± 8.1 | 0.008 ± 0.002 | 0.0001 | 36,000 fold | – | – | – | – | –
4 | C[C@H](N)C(=O)O [L-Ala, L-alanine] | converted to corresponding LCBs | – | – | – | – | 0.0037 | – | 110 ± 9.0 ^c mM | 0.42 ± 0.011 ^c min^–1 | 65 ± 10 | 24.0 ± 0.2 | 0.029 ± 0.00024
5 | NC(CO)(CO)CO [Tris, tris(hydroxymethyl)aminomethane] | – | – | 40 ± 5.6 | – | – | – | – | – | – | – | – | –
6 | N[C@@H](CCO)C(=O)O [L-Hse, L-homoserine] | converted to corresponding LCBs | – | 3.6 ± 0.2 | 82 ± 14 | 4.5 ± 0.28 | 0.055 | – | – | – | – | – | –
